Assay [1] has as its system AKT1S1, IRS1, AKT phosphorylation. Put plainly: Ex vivo soleus muscle insulin signaling (Western blot). Details: species or system mouse. The conditions noted are these: 100 nM UCN2 pre-treatment, n = 2. The method, then: Soleus muscle was removed from fed animals anesthetized by an intraperitoneal injection of pentobarbital (10 mg/100 g body weight). Dissected soleus muscles were suspended at 5 mN of tension in incubation chambers (Model 610/820 M, Danish Myo-Technology, Denmark) containing Krebs-Ringer-Buffer supplemented with 0.1% BSA, 2 mM pyruvate and 8 mM Mannitol. During the entire incubation period the KRB was maintained at 30 °C and oxygenated with 95% O2 and 5% CO2. Following 10 min of pre-incubation muscles were incubated in Krebs buffer +/− 100 nM (−7.0 log[M]) UCN2. At the next time point, 30 min later, muscles were placed in baths containing Krebs buffer +/− 100 nM (−7.0 [M]) UCN2. At the next time point, 15 min later, muscles were placed in baths containing Krebs buffer +/− 100 nM (−7.0 log[M]) UCN2 + /− 60 nM Insulin (Actrapid, Novo Nordisk, Bagsvaerd, Denmark) for 15 min. For the ex vivo glucose uptake studies, 1 mM [^3H]2-deoxyglucose (Perkin-Elmer) and 7 mM [^14C]mannitol (Perkin-Elmer) was also added at this time. Muscles that were in saline in the first bath, saline in the second bath, and saline in the third bath were assigned to the SSS group. Muscles that were in saline in the first bath, saline in the second bath, and UCN2 in the third bath were assigned to the SSU group. […]
For orientation: Immunoblotting shows a protein as a band on a membrane.

The target in another assay is T1, hCRHR2α G13 (Homo sapiens, UniProt Q13324).
T1 construct: expressed in transfected cells; host or cells: HEK293 cells (Millipore Sigma), transient PEI co-transfection with biosensor plasmids at Domain Therapeutics
T1 sequence (Q13324 1-411): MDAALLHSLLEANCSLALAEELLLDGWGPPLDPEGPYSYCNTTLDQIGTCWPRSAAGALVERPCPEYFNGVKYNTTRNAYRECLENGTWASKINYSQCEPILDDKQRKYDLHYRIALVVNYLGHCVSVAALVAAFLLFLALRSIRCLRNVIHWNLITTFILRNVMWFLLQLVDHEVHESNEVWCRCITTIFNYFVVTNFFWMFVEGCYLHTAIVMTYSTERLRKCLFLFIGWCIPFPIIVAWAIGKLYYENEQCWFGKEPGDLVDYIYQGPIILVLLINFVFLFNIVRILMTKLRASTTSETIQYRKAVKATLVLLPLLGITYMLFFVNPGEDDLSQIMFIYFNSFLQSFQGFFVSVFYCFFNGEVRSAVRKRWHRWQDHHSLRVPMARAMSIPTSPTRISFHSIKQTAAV
Put plainly: ebBRET EMTA, G13 biosensor. The assay is classed as cell-based. The conditions noted are these: HEK293 cells, CRHR2a, n = 2 independent experiments. The method, then: Typically, GPCR desensitization is carried out through the recruitment of β-Arrestins or alternative G-proteins to the receptor. To identify whether these proteins are recruited to CRHR2 in response to UCN2, enhanced bystander bioluminescence resonance energy transfer (ebBRET)-based effector membrane translocation assays (EMTA) were carried out in HEK293 cells[28],[29]. Cells were co-transfected with plasmids expressing unmodified CRHR2a (alpha isoform) and one of various pathway-specific biosensors. […]
Effector membrane translocation biosensor assays (bioSensAll®) were conducted at Domain Therapeutics NA Inc. (Montreal, QC, Canada) and described in cells[28],[29]. […] Briefly, DNA and PEI were diluted separately in 150 mM NaCl, mixed and then incubated for at least 20 min at room temperature (note: salmon sperm DNA (Invitrogen) was used to adjust the total amount of DNA transfected to a final quantity of 1 ug per mL of cell culture to be transfected). During the 20-minute incubation, HEK293 cells were detached, counted and resuspended into cell culture medium to a final density of 350,000 cells per mL. […] Cells were then incubated at room temperature for 10 min and BRET readings subsequently collected with a 0.4 s integration time on a Synergy NEO plate reader (BioTek Instruments, Inc., USA; filters: 400 nm/70 nm, 515 nm/20 nm). […]

Where no end group is shown, it is not given here.

For “IVLSLDVPIGLLQILLEQARARAAREQATTNARILARVGHC-NH2 (C-terminus assumed) [UCN2, Urocortin 2]”, the “AKT1S1, IRS1 and AKT phosphorylation after UCN2 pre-treatment ex vivo” value in assay [1] is “increased AKT1S1, IRS1, and AKT phosphorylation”. In addition, the G13 recruitment entry at hCRHR2α G13 was “not recruited”.

(Values after PMC10319809, “Chronic UCN2 treatment desensitizes CRHR2 and improves insulin sensitivity” (Nature Communications, 2023).)
